The compounds below were run against human HPK1 (MAP4K1) (Homo sapiens (Human), UniProt Q92918) (assay: HPK1 IC50 Assay (TR-FRET biochemical kinase assay, STK S1 peptide substrate)). Conditions: recombinant human HPK1 kinase domain 0.15 nM, 10 μM ATP, 1 μM STK S1 peptide; geometric mean.
Experimental: The enzymatic activity of human HPK1 (MAP4K1) was monitored in a biochemical assay in the presence or absence of compounds and using a synthetic peptide substrate. An increase in phosphorylation of the peptide by HPK1 was indicative of its kinase activity.
Recombinant HPK1 kinase domain produced via baculovirus infection of insect cells was obtained from Proteros (Proteros Biostructures #PR-0322) and was pre-activated in the presence of 2 mM ATP (Sigma-Aldrich, cat #GE27-2056-01) and 2 mM magnesium chloride for 16 hours at 4° C. The protein reaction mixture was then loaded to a desalting column (Thermo Fisher Scientific, Cat #89889) to remove excess ATP. HPK1 was eluted with buffer containing 20 mM Tris (2-Amino-2-(hydroxymethyl)propane-1,3-diol) pH 8.0, 150 mM NaCl, 2 mM dithiothreitol and 5% glycerol, and was frozen at −80° C. for later use.
Ten nanoliters of test compounds dissolved in DMSO at various concentrations were dispensed into a 384-well ProxiPlate (PerkinElmer #6008289). Five microliters of a solution of recombinant HPK1 diluted in HPK1 kinase assay buffer (50 mM BES [N,N-Bis(2-hydroxyethyl)-2-aminoethanesulfonic acid], pH 7.0; 10 mM magnesium chloride; 0.01% Triton X-100; 1 mM dithiothreitol; 0.01% bovine serum albumin; 0.1 mM sodium orthovanadate) was added to the compound-containing plate and was incubated for 15 minutes at 25° C. Five microliters of a mixture of ATP (Sigma-Aldrich #A6559) and peptide substrate STK S1 (Cisbio #61ST1BLC) diluted in HPK1 kinase assay buffer was then added to start the reaction. Final concentrations were 0.15 nM for HPK1, 10 μM for ATP, and 1 μM for the STK S1 peptide substrate. The reaction mixture was incubated at 25° C. for 3 hours and was stopped with the addition of 10 μl of an EDTA (Ethylenediaminetetraacetic acid)-containing detection buffer (Cisbio #62SDBRDF) supplemented with Europium cryptate-labeled anti-phospho-serine/threonine antibodies (Cisbio #62ST1PEJ) and XL665-labeled streptavidin (Cisbio #610SAXLG). The mixture was incubated for 16 hours at room temperature and peptide phosphorylation was measured by time-resolved fluorescence energy transfer (665 nm/620 nm) on an Envision plate reader (PerkinElmer).
Data in Table 1 were normalized based on positive (staurosporine) and negative (DMSO) controls. Least squares curve fittings were performed using a four-parameter variable slope nonlinear regression model. IC50 is defined as the concentration of compound required to inhibit 50% of maximum phosphorylation. IC50 values from multiple experiments were averaged by geometric mean and the standard deviation was calculated.

human HPK1 (MAP4K1), sequence (Q92918 17-274): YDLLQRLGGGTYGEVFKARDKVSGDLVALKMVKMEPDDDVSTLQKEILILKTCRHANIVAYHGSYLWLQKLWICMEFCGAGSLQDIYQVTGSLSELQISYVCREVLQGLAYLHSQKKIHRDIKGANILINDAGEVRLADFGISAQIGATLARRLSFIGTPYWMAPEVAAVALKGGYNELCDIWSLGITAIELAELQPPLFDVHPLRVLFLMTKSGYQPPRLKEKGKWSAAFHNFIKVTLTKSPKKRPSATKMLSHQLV

IC50	SMILES
40 pM	CC(C)n1cnc2cc(-c3ccc4c(c3)N([C@H]3C[C@@H](N5CC6CCC(C6)C5)C3)C(=O)C43CCN(C(=O)C4CCO4)CC3)nc(Nc3ccncc3F)c21 (stereo partly drawn) [Example 125]
60 pM	CC(C)n1cnc2cc(-c3ccc4c(c3)N([C@H]3C[C@@H](N5CCC(C)(C)C5)C3)C(=O)C43CCN(C(=O)C4(C)COC4)CC3)nc(Nc3ccc(F)nc3F)c21 [Example 165]
200 pM	CC[C@@H](O)C(=O)N1CCC2(CC1)C(=O)N([C@H]1C[C@@H](N3CCC(C)(C)C3)C1)c1cc(-c3cc4ncn(C(C)C)c4c(Nc4ccncc4F)n3)ccc12 [Example 117]
400 pM	CC(C)n1cnc2cc(-c3ccc4c(c3)N([C@H]3C[C@@H](N5CCC(C)(C)C5)C3)C(=O)C43CCN(C(=O)c4cnnn4C)CC3)nc(Nc3ccncc3F)c21 [Example 161]
500 pM	CC(C)n1cnc2cc(-c3ccc4c(c3)N([C@H]3C[C@@H](N5CCCCC5)C3)C(=O)C43CCN(C(=O)C4(F)CC4)CC3)nc(Nc3ccncc3F)c21 [Example 150]
600 pM	Cc1cc(Nc2nc(-c3ccc4c(c3)N([C@H]3C[C@@H](N5CCC(C)(C)C5)C3)C(=O)C43CCN(C(=O)C(C)(C)CO)CC3)cc3ncn(C(C)C)c23)c(F)cn1 [Example 131]
300 pM	CC(C)n1cnc2cc(-c3ccc4c(c3)N([C@H]3C[C@@H](N5CCCCC5)C3)C(=O)C43CCN(C(=O)C4(CO)CC4)CC3)nc(Nc3ccncc3F)c21 [Example 134]
200 pM	CC(=O)N1CCC2(CC1)C(=O)N([C@H]1C[C@@H](N3CC4CC4(C)C3)C1)c1cc(-c3cc4ncn(C(C)C)c4c(Nc4ccncc4F)n3)ccc12 (stereo partly drawn) [Example 187]
100 pM	CC(C)n1cnc2cc(-c3ccc4c(c3)N([C@H]3C[C@@H](N5CC6CCC(C6)C5)C3)C(=O)C43CCN(C(=O)C4(C)COC4)CC3)nc(Nc3ccncc3F)c21 [Example 123]
400 pM	COC(C)(C)C(=O)N1CCC2(CC1)C(=O)N([C@H]1C[C@@H](N3CCCCC3)C1)c1cc(-c3cc4ncn(C(C)C)c4c(Nc4ccncc4F)n3)ccc12 [Example 145]
300 pM	CC(C)n1cnc2cc(-c3ccc4c(c3)N([C@H]3C[C@@H](N5CCC(C)(C)C5)C3)C(=O)C43CCN(C(=O)c4cocn4)CC3)nc(Nc3ccncc3F)c21 [Example 154]
500 pM	CC(C)C(=O)N1CCC2(CC1)C(=O)N([C@H]1C[C@@H](N3CCCCC3)C1)c1cc(-c3cc4ncn(C(C)C)c4c(Nc4ccncc4F)n3)ccc12 [Example 171]
200 pM	CCC1(C(=O)N2CCC3(CC2)C(=O)N([C@H]2C[C@@H](N4CCCCC4)C2)c2cc(-c4cc5ncn(C(C)C)c5c(Nc5ccncc5F)n4)ccc23)COC1 [Example 138]
200 pM	CO[C@H]1C[C@@H](C(=O)N2CCC3(CC2)C(=O)N([C@H]2C[C@@H](N4CCC(C)(C)C4)C2)c2cc(-c4cc5ncn(C(C)C)c5c(Nc5ccncc5F)n4)ccc23)C1 [Example 156]
400 pM	CC(=O)N1CCC2(CC1)C(=O)N([C@H]1C[C@@H](N3CCC4CC4C3)C1)c1cc(-c3cc4ncn(C(C)C)c4c(Nc4ccncc4F)n3)ccc12 (stereo partly drawn) [Example 183]
600 pM	Cc1cc(Nc2nc(-c3ccc4c(c3)N([C@H]3C[C@@H](N5CCCCC5)C3)C(=O)C43CCN(C(=O)C4(C)COC4)CC3)cc3ncn(C(C)C)c23)c(F)cn1 [Example 129]
200 pM	CC(C)[C@H](O)C(=O)N1CCC2(CC1)C(=O)N([C@H]1C[C@@H](N3CCC(C)(C)C3)C1)c1cc(-c3cc4ncn(C(C)C)c4c(Nc4ccncc4F)n3)ccc12 [Example 119]
300 pM	CC(C)n1cnc2cc(-c3ccc4c(c3)N([C@H]3C[C@@H](N5CCCCC5)C3)C(=O)C43CCN(C(=O)C4COC4)CC3)nc(Nc3ccncc3F)c21 [Example 144]

Further lines, the compound ahead of its results:

SMILES	IC50
CC(C)n1cnc2cc(-c3ccc4c(c3)N([C@H]3C[C@@H](N5CCCC(C)(C)C5)C3)C(=O)C43CCN(C(=O)C4CCO4)CC3)nc(Nc3ccncc3F)c21 (stereo partly drawn) [Example 108]	200 pM
CC(C)n1cnc2cc(-c3ccc4c(c3)N([C@H]3C[C@@H](N5CCCCC5)C3)C(=O)C43CCN(C(=O)C(C)(C)CO)CC3)nc(Nc3ccnc(F)c3F)c21 [Example 103]	200 pM
CNC(=O)c1ccc(F)c(Nc2nc(-c3ccc4c(c3)N([C@H]3C[C@@H](N5CCCCC5)C3)C(=O)C4(C)C)cc3ncn(C(C)C)c23)n1 [Example 104]	1400 pM

Same assay, conditions: recombinant human HPK1 kinase domain 0.15 nM, 10 μM ATP, 1 μM STK S1 peptide; geometric mean of multiple experiments

IC50	SMILES
400 pM	CC(=O)N1CCC2(CC1)C(=O)N([C@H]1C[C@@H](N3CCC(C)(C)C3)C1)c1cc(-c3cc4ncn(C(C)C)c4c(Nc4ccncc4F)n3)ccc12 [Example 29]
300 pM	CC(C)n1cnc2cc(-c3ccc4c(c3)N([C@H]3C[C@@H](N5CCCCC5)C3)C(=O)C4(C)C)nc(Nc3ccnc(F)c3F)c21 [Example 94]
200 pM	CC(C)n1cnc2cc(-c3ccc4c(c3)N([C@H]3C[C@@H](N5CCCC(C)(C)C5)C3)C(=O)C4(C)C)nc(Nc3ccc(=O)n(C)c3)c21 [Example 81]
700 pM	CC(C)n1cnc2cc(-c3ccc4c(c3)N([C@H]3C[C@@H](N5C[C@H]6CC[C@@H]5C6)C3)C(=O)C4(C)C)nc(Nc3ccncc3F)c21 [Example 66]
400 pM	CC(C)n1cnc2cc(-c3ccc4c(c3)N([C@H]3C[C@@H](N5C[C@@H](C)[C@@H](C)C5)C3)C(=O)C4(C)C)nc(Nc3ccncc3F)c21 [Example 57]
100 pM	CC(C)n1cnc2cc(-c3ccc4c(c3)N([C@H]3C[C@@H](N5CCCCC5)C3)C(=O)C43CCN(C(=O)[C@@H](C)O)CC3)nc(Nc3ccc(F)nc3F)c21 [Example 68]
90 pM	CC(C)n1cnc2cc(-c3ccc4c(c3)N([C@H]3C[C@@H](N5CCCCCC5)C3)C(=O)C4(C)C)nc(Nc3ccncc3F)c21 [Example 59]
300 pM	CC(C)n1cnc2cc(-c3ccc4c(c3)N([C@H]3C[C@@H](N5CCCCC5)C3)C(=O)C43CCN(C(=O)C4CCO4)CC3)nc(Nc3ccncc3F)c21 (stereo partly drawn) [Example 22]
50 pM	CC(C)n1cnc2cc(-c3ccc4c(c3)N([C@H]3C[C@@H](N5CC6CCC(C6)C5)C3)C(=O)C4(C)C)nc(Nc3ccncc3F)c21 [Example 62]
600 pM	CC(=O)N1CCC2(CC1)C(=O)N([C@H]1C[C@@H](N3CCC[C@@H](C)C3)C1)c1cc(-c3cc4ncn(C(C)C)c4c(Nc4ccncc4F)n3)ccc12 [Example 32]
1700 pM	CC(C)CN[C@H]1C[C@@H](N2C(=O)C(C)(C)c3ccc(-c4cc5ncn(C(C)C)c5c(Nc5ccncc5F)n4)cc32)C1 [Example 84]
300 pM	CC(C)n1cnc2cc(-c3ccc4c(c3)N([C@H]3C[C@@H](N5CCC(C)(C)C5)C3)C(=O)C43CCN(C(=O)[C@H]4CCOC4)CC3)nc(Nc3ccncc3F)c21 [Example 16]
200 pM	CC(C)n1cnc2cc(-c3ccc4c(c3)N([C@H]3C[C@@H](N5CCC(C)(C)C5)C3)C(=O)C43CCOCC3)nc(Nc3ccncc3F)c21 [Example 71]
50 pM	CC(C)n1cnc2cc(-c3ccc4c(c3)N([C@H]3C[C@@H](N5CCC(C)(C)C5)C3)C(=O)C43CCN(C(=O)[C@@H]4CC[C@H](C)O4)CC3)nc(Nc3ccncc3F)c21 [Example 20B, 1-((1s,3R)-3-(3,3-dimethylpyrrolidin-1-yl)cyclobutyl)-6-(4-((3-fluoropyridin-4-yl)amino)-3-isopropyl-3H-imidazo[4,5-c]pyridin-6-yl)-1′-((2S,5 S)-5-methyltetrahydrofuran-2-carbonyl)spiro[indoline-3,4′-piperidin]-2-one]

SMILES	IC50
CC(C)n1cnc2cc(-c3ccc4c(c3)N([C@H]3C[C@@H](N5CCC(F)CC5)C3)C(=O)C43CCN(C4COC4)CC3)nc(Nc3ccncc3F)c21 [Example 43]	1100 pM
CC(C)n1cnc2cc(-c3ccc4c(c3)N([C@H]3C[C@@H](N5C[C@@H](O)C(C)(C)C5)C3)C(=O)C43CCN(C4COC4)CC3)nc(Nc3ccncc3F)c21 [Example 40]	600 pM
CC(C)n1cnc2cc(-c3ccc4c(c3)N([C@H]3C[C@@H](N5CCC(C)(C)C5)C3)C(=O)C43CCN(C4COC4)CC3)nc(Nc3ccncc3F)c21 [Example 75]	400 pM
CC(C)n1cnc2cc(-c3ccc4c(c3)N([C@H]3C[C@@H](N5CCC(C)(C)C5)C3)C(=O)C43CCN(C(=O)[C@H]4CCO4)CC3)nc(Nc3ccncc3F)c21 (single isomer, unassigned) [Example 78B, 1-((1s,3s)-3-(3,3-dimethylpyrrolidin-1-yl)cyclobutyl)-6-(4-((3-fluoropyridin-4-yl)amino)-3-isopropyl-3H-imidazo[4,5-c]pyridin-6-yl)-1′-(oxetane-2-carbonyl)spiro[indoline-3,4′-piperidin]-2-one]	300 pM

From patent US11071730B2, “Substituted 6-azabenzimidazole compounds” (Gilead Sciences, Inc., priority 2018, dated 2021)
